Measured values reported in ChEMBL document CHEMBL2417541, “Aromatic glucosides from the seeds of Prunus davidiana” (J Nat Prod, 2013).

How the values were obtained:
[1] = test system: Liver microsomes; test: Antioxidant activity in rat liver microsomes assessed as inhibition of Fe2+-cysteine-induced lipid peroxidation measured malondialdehyde level at 10^-5 M/L incubated for 15 mins prior to FeSO4 addition measured after 15 mins by TBA method relative to control; assay type: functional; conditions: Microsome
[2] = test system: Liver microsomes; test: Antioxidant activity in rat liver microsomes assessed as inhibition of Fe2+-cysteine-induced lipid peroxidation measured malondialdehyde level at 10^-6 M/L incubated for 15 mins prior to FeSO4 addition measured after 15 mins by TBA method relative to control; assay type: functional; conditions: Microsome
[3] = test system: HCT-8; test: Cytotoxicity against human HCT8 cells; assay type: cell-based
[4] = test system: Liver microsomes; test: Antioxidant activity in rat liver microsomes assessed as inhibition of Fe2+-cysteine-induced lipid peroxidation measured malondialdehyde level at 10^-4 M/L incubated for 15 mins prior to FeSO4 addition measured after 15 mins by TBA method relative to control; assay type: functional; conditions: Microsome
[5] = test system: A549; test: Cytotoxicity against human A549 cells; assay type: cell-based
[6] = test system: Bel-7402; test: Cytotoxicity against human Bel7402 cells; assay type: cell-based
[7] = test system: BGC-823; test: Cytotoxicity against human BGC823 cells; assay type: cell-based
[8] = test system: A2780; test: Cytotoxicity against human A2780 cells; assay type: cell-based

| Compound | inhibition [1] [%] | inhibition [2] [%] | IC50 [3] [µM] | inhibition [4] [%] | IC50 [5] [µM] | IC50 [6] [µM] | IC50 [7] [µM] | IC50 [8] [µM] |
| --- | --- | --- | --- | --- | --- | --- | --- | --- |
| N#C[C@H](O[C@@H]1O[C@H](CO[C@@H]2O[C@H](COC(=O)c3cccnc3)[C@@H](O)[C@H](O)[C@H]2O)[C@@H](O)[C@H](O)[C@H]1O)c1ccccc1 | 67 | 56 | > 10 | 88 | > 10 | > 10 | > 10 | > 10 |
| O=C(OC[C@H]1O[C@@H](O[C@@H](C(=O)O)c2ccccc2)[C@H](O)[C@@H](O)[C@@H]1O)c1ccccc1 | 60 | 53 | > 10 | 67 | > 10 | > 10 | > 10 | > 10 |
| CCOC(=O)[C@H](O[C@@H]1O[C@H](CO[C@@H]2O[C@H](CO)[C@@H](O)[C@H](O)[C@H]2O)[C@@H](O)[C@H](O)[C@H]1O)c1ccccc1 | 51 | 56 | > 10 | 51 | > 10 | > 10 | > 10 | > 10 |
| O=C(OC[C@H]1O[C@@H](OC[C@H]2O[C@@H](OC(=O)c3ccccc3)[C@H](O)[C@@H](O)[C@@H]2O)[C@H](O)[C@@H](O)[C@@H]1O)c1ccccc1 | 66 | 56 | > 10 | 56 | > 10 | > 10 | > 10 | > 10 |
| O=C(OC[C@H]1O[C@@H](OC[C@H]2O[C@@H](OCc3ccccc3)[C@H](O)[C@@H](O)[C@@H]2O)[C@H](O)[C@@H](O)[C@@H]1O)c1ccccc1 | 50 | 59 | > 10 | 55 | > 10 | > 10 | > 10 | > 10 |
| COc1cc(CO)ccc1O[C@@H]1O[C@H](COC(=O)c2ccccc2)[C@@H](O)[C@H](O)[C@H]1O | 42 | 41 | > 10 | 51 | > 10 | > 10 | > 10 | > 10 |
| O=C(OC[C@H]1O[C@@H](OC[C@H](O)[C@@H](O)c2ccc(O)cc2)[C@H](O)[C@@H](O)[C@@H]1O)c1ccccc1 | 64 | 57 | > 10 | 88 | > 10 | > 10 | > 10 | > 10 |
